# Laboratory results taken from the METLIN SMRT retention time set (Domingo-Almenara et al. 2019).
# Experiment: gradient 5% acetonitrile 3 min, to 50% in 2 min, to 85% in 15 min, held 3 min, 100 µL/min
# Conditions: column: Zorbax Extend-C18 2.1 x 50 mm; eluents: water / acetonitrile, 0.1% formic acid
# Summary of the method: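 Retention time was recorded from adduct peaks, which were picked computationally and each inspected manually. Pure standards ran in mixtures of ~100 molecules on HPLC coupled to a quadrupole time-of-flight mass spectrometer, in positive and negative ionization mode, through a Zorbax Extend-C18 column (2.1 × 50 mm, 1.8 μm) at 100 μL/min. Eluents were water and acetonitrile, each with 0.1% formic acid.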
row,Compound,RP-LC retention time [s]
1,O=C(C1CCN(S(=O)(=O)c2ccc(-c3ccn[nH]3)o2)CC1)N1CCN(c2ccccn2)CC1,594
2,O=C(NCc1noc(-c2ccc(F)cc2)n1)C1CCC1,774
3,COc1ccc(Cl)cc1S(=O)(=O)N1CCc2nn(CC3CC3)c(=O)n2CC1,800
4,CCCNC(=O)Cc1c(C)n(C)c2nc(-c3ccccc3)nn2c1=O,660
5,CC1=NN(c2cccc(C(=O)O)c2)C(=O)/C1=C\c1ccc(-c2ccc(Cl)c(C(=O)O)c2)o1,1050
6,O=C(Cc1c[nH]c2ccccc12)Nc1cc(-c2ccsc2)no1,876
7,CCCNC(=O)C1CCCN(C(=O)c2cc(C)cc(C)c2)C1 (configuration not stated),746
8,CC(C)N1C(=O)c2cccnc2Sc2cc(NC(=O)c3ccc(Cl)s3)ccc21,975
9,O=C(CCSc1nnnn1-c1ccc(Cl)cc1)Nc1nccs1,776
10,CCCOc1ccc(-c2noc(Cc3nc(-c4ccc(OC)c(OC)c4)cs3)n2)cc1,1220
11,CC(C(=O)N1CCN(c2ccccn2)CC1)N1Cc2ccccc2C1=O (configuration not stated),587
12,Cc1ccc(-c2noc(-c3cccc(S(=O)(=O)NCc4ccccc4)c3)n2)cc1,1210
13,CCn1cc(S(=O)(=O)NCc2cccc(C)c2)c2cccnc21,845
14,CCCn1c(=O)sc2cc(S(=O)(=O)N3CCC(C(=O)NC4CCCC4)CC3)ccc21,890
15,CCC(C)NC(=O)N1CCN(c2cc(-c3cccc(F)c3)ncn2)CC1 (configuration not stated),650
16,Cc1cc(NC(=O)CC2COc3ccccc3NC2=O)ccc1Br (configuration not stated),791
17,COc1ccc(Cn2c(=O)c3sccc3n(Cc3nc(-c4ccc(C)cc4)no3)c2=O)cc1,1060
18,CCCc1ccc(S(=O)(=O)N2CCN(c3nc4ccncc4n(C)c3=O)CC2)cc1,699
19,COCCN(CC(=O)N1CCc2sccc2C1COc1ccc(Cl)cc1)C(=O)C1CC1 (configuration not stated),931
20,Cc1ccc(C)c(Nc2c(-c3ccc(N(C)C)cc3)nc3ncccn23)c1,996
21,COc1cccc(-c2ccc(=O)n(Cc3nc(-c4ccc(F)cc4)no3)n2)c1,984
22,Cc1ccccc1CNC(=O)CCC1CCN(c2cc(NC3CC3)ncn2)CC1,585

row,Compound,RP-LC retention time [s]
1,Cc1cc(Nc2cc(N3CCN(C)CC3)nc(/C=C/c3ccccc3)n2)n[nH]1,625
2,Cc1[nH]c(C(=O)N2CCCC(C(=O)NCCN3CCN(C)CC3)C2)c(C)c1C(=O)OC(C)C (configuration not stated),598
3,COc1cc([C@@H]2c3cc4c(cc3[C@H](O)[C@@H](CO)[C@@H]2C(=O)NC(C)C)OCO4)cc(OC)c1OC,660
4,COc1ccc(N2CCN(c3nc(C(=O)N4CCOCC4)cs3)CC2)cc1,716
5,O=[N+]([O-])c1cccnc1Oc1cccnc1,716
6,c1ccc(-c2nc3nc4c(c(Nc5ccc6c(c5)OCCO6)n3n2)CCC4)cc1,961
7,COc1ccc(N2CCN(c3nccc4ccc(C(=O)NC5CCCCCC5)cc34)CC2)cc1,835
8,O=C(NC1CCCCCC1)C1CCN(Cc2cc3ccccc3n2Cc2cccc(F)c2)CC1,848
9,Cc1ccc(S(=O)(=O)N2CCN(CCc3cn(C)c4ncccc34)CC2)cc1Cl,686
10,Cc1cccc(NC(=O)Cn2ccc3sccc3c2=O)c1,701
11,Cc1ccc(-c2noc(-c3ccc(=O)n(Cc4cccc(F)c4)n3)n2)cc1,1150
12,CCc1ccc(NC(=O)Cn2c(=O)n(-c3ccccc3)c(=O)c3c2cc(C)n3C)cc1,886
13,CCCc1ccc(S(=O)(=O)N2CCC(C(=O)NCCc3csc(-c4ccccc4)n3)CC2)cc1,1100
14,COc1ccc(-c2cn3c(CC(=O)Nc4ccc(C(F)(F)F)cc4)csc3n2)cc1,869
15,Cn1cnnc1C1CCCCN1C(=O)COc1ccc(F)c(F)c1 (configuration not stated),682
16,CCOc1ccc(NC(=O)N2c3ccccc3CC2c2nc(C3CC3)no2)cc1 (configuration not stated),982
17,COc1cc(NC(=O)C2CCN(C(=O)C3Sc4ccccc4NC3=O)CC2)cc(OC)c1OC (configuration not stated),707
18,Cc1ccc(-c2noc(-c3cccc(S(=O)(=O)N4CCN(c5ccccn5)CC4)c3)n2)cc1,995
19,CN(c1nc2ccccc2s1)C1CCN(C[C@H](O)COc2ccc(F)c(F)c2)CC1,777
20,CCS(=O)(=O)N1CC(=O)N(c2ccc(F)cc2C)C(C)(C(=O)NCc2ccc(F)cc2)C1 (configuration not stated),832
21,O=C(Cn1ccc2ccccc21)Nc1ccccc1OC(F)(F)F,610
22,Cc1nc(-c2ccncc2)nc2c1CC(=O)N2C1CCCCC1,716

row,Compound,RP-LC retention time [s]
1,CC1CCCN(Cc2nc(Cn3ccn4nc(-c5ccccc5)cc4c3=O)no2)C1 (configuration not stated),654
2,CCCCS(=O)(=O)c1cc2c(cc1NC(=O)Cc1ccc(F)cc1)n(C)c(=O)n2C,847
3,COc1ccc(-c2cn3c(CC(=O)Nc4ccc(OC)cc4OC)csc3n2)cc1,746
4,CC1=C(c2ccc(F)cc2)S(=O)(=O)N=C1N1CCCN(C(=O)c2ccccn2)CC1,713
5,COc1ccc(-c2cnn(CC(=O)Nc3cc(F)cc(F)c3)c(=O)n2)cc1,872
6,CCn1ccc2sc(C)c(C(=O)NCc3ccc(C)cc3)c2c1=O,850
7,O=C(CCc1c(-c2ccc(Br)cc2)nc2ccccn12)NCc1cccc(F)c1,677
8,Cc1ccc(CNC(=O)C2CCCN(c3nnc4c(Cl)cccn34)C2)o1 (configuration not stated),704
9,Cc1cc(-c2nnc(-c3ccc(F)cc3)o2)c(C)n1CC(=O)NC(C)c1ccccc1 (configuration not stated),946
10,CCN1C(=O)CCc2cc(NS(=O)(=O)c3ccccc3C(=O)OC)ccc21,790
11,O=C(Nc1nnc(SCc2c(F)cccc2Cl)s1)c1cc(C2CC2)on1,1010
12,COc1ccc(Cl)cc1NC(=O)C1CCCN(c2nc3ccccc3nc2C(F)(F)F)C1 (configuration not stated),693
13,Cn1ncc2c(N3CCSCC3)nc(C(=O)NC3CC3)nc21,670
14,CCCc1noc(-c2cccnc2N2CCCN(Cc3ccc(F)cc3)CC2)n1,729
15,COC(=O)C(C)NC(=O)NCc1cccn1Cc1ccccc1C (configuration not stated),821
16,CC(Oc1ccc(-c2cnc3ccccc3n2)cc1)C(=O)N1CCN(c2ccccn2)CC1 (configuration not stated),650
17,COc1ccc(N2CC(c3noc(-c4ccc(C)cc4C)n3)CC2=O)cc1 (configuration not stated),1000
18,CCOC(=O)C1CCN(S(=O)(=O)c2c(C)nc3sc(C)nn23)CC1,804
19,Cn1c(C2CCN(C(=O)NCc3ccc(F)cc3)CC2)cc(=O)n2nccc12,644
20,CC(C)Cc1nc(N2CCN(C(=O)c3ccco3)CC2)c(C#N)c2c1COC(C)(C)C2,1180
21,O=C(NCCCN1CCOCC1)C1CCN(c2nc3cccnc3s2)CC1,568
22,Cc1ccccc1-c1nnc(COc2ccc(NC(=O)c3ccsc3)cc2)o1,911

row,Compound,RP-LC retention time [s]
1,COc1cc(NC(=O)c2ccc(-c3ccc(Cl)cc3)o2)cc(OC)c1,1170
2,O=C(NCc1csc(-c2cccs2)n1)C1CCN(S(=O)(=O)c2cccc(Cl)c2)CC1,927
3,CC(C)c1ccc(-c2ccnc3c(C(=O)NCc4cccnc4)cnn23)cc1,723
4,CC1(C(=O)NC2CCCCCCC2)CN(S(C)(=O)=O)CC(=O)N1Cc1ccc(Cl)cc1 (configuration not stated),993
5,COc1cc2ncc(S(=O)(=O)c3ccc(C)c(C)c3)c(N3CCN(C)CC3)c2cc1OC,629
6,CCc1nc(-c2csc(S(=O)(=O)N3CCCC(C(=O)NCc4ccc(C)o4)C3)c2)no1 (configuration not stated),946
7,CN1C(=O)COc2cc(-c3noc(C(=O)N4CCCCCC4)n3)ccc21,919
8,Fc1cccc(CSc2ccc(-c3ccc4c(c3)OCO4)nn2)c1,1020
9,Cc1oc2c(c1C(=O)Nc1ccc3c(c1)OCO3)C1=NC(C)(C)CN1C=N2,665
10,Cc1ccccc1NC(=O)N1CCC(N2CCN(Cc3ccccc3)C2=O)CC1,794
11,COc1ccc(Cl)cc1S(=O)(=O)NCC1CCN(c2ncccn2)CC1,772
12,CCN1c2ccccc2C(=O)NC12CCN(C(=O)Nc1ccc(C)c(C)c1)CC2,860
13,CCC(C)NC(=O)N1CCCN(C2=NS(=O)(=O)C(c3ccc(C)c(C)c3)=C2C)CC1 (configuration not stated),843
14,O=C(c1ccc(Cl)cc1)N1CCN=C1N1CCCCC1,640
15,O=C(Nc1ccc2c(c1)OCCO2)N1CCc2nc(-c3ccccc3)ncc2C1,848
16,O=C(c1cc(C2CC2)[nH]n1)N1CCn2c(nnc2-c2ccccc2)C1,640
17,CN(CCNC(=O)c1ccc2[nH]c3c(c2c1)CN(C(=O)C1CCC1)CC3)C1CCCCC1,646
18,COc1cccc(C2CC(c3cccc(NS(C)(=O)=O)c3)=NN2C(=O)C(C)(C)C)c1O (configuration not stated),820
19,CCCCC(=O)Nc1ccc2nc(N3CCN(c4cccc(Cl)c4)CC3)cc(C(=O)O)c2c1,758
20,CC(C)(C)c1ccc(NC(=O)CSc2ncn[nH]2)cc1,719
21,O=C(NCc1cccnc1)C1CN(S(=O)(=O)c2cccnc2)CC12CCCCC2 (configuration not stated),595
